Measured values as given in the Kinase Knowledgebase extract (Sharma et al. 2016).

Experiments:
MAPK14 (human) [1] = molecular target: MAPK14 (human) (UniProt Q16539); test: Inhibition of TNF-alpha Production in LPS-Stimulated PBMCs; conditions: pbmc
MAPK14 (human) [2] = molecular target: MAPK14 (human) (UniProt Q16539); test: Inhibition of IL-1 Production in LPS-Stimulated PBMCs; conditions: pbmc
MAPK14 (human) [3] = molecular target: MAPK14 (human) (UniProt Q16539); test: Inhibition of MAPK14 Kinase Activity
MAPK14 (human) [4] = molecular target: MAPK14 (human) (UniProt Q16539); test: Inhibition of IL-6 Production in Whole Blood
MAPK14 (human) [5] = molecular target: MAPK14 (human) (UniProt Q16539); test: Inhibition of TNF Production in Whole Blood
MAPK14 (human) [6] = molecular target: MAPK14 (human) (UniProt Q16539); test: Inhibition of IL-1 Production in Whole Blood

Sequence of MAPK14 (human) (Q16539 whole entry, looked up): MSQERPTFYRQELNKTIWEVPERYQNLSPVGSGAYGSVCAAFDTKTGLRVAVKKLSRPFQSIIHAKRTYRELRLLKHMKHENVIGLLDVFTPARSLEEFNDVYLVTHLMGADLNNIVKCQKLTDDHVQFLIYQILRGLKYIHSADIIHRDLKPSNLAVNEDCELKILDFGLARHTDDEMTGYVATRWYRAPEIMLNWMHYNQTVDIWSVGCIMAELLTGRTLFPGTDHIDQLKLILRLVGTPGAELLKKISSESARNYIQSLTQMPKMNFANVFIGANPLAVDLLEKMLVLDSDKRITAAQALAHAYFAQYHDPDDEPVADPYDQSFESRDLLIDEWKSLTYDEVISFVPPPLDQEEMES

Compound | IC50 (MAPK14 (human) [1]) [µM] | IC50 (MAPK14 (human) [2]) [µM] | IC50 (MAPK14 (human) [3]) [µM] | IC50 (MAPK14 (human) [4]) [µM] | IC50 (MAPK14 (human) [5]) [µM] | IC50 (MAPK14 (human) [6]) [µM] | Ki (MAPK14 (human) [3]) [µM]
O=c1ncn2nc(Sc3ccccc3)ccc2c1-c1ccc(Cl)c(Cl)c1 | > 0.5 | > 0.5 | – | – | – | – | –
O=C(O)c1cc(F)ccc1Sc1ccc2c(-c3c(Cl)cccc3Cl)c(=O)ncn2n1 | > 0.5 | > 0.5 | > 1 | – | – | – | –
NC(=O)C(c1cccc(-c2ccccc2)n1)c1cc(Cl)ccc1Cl (stereo unspecified) | > 0.5 | 0.1 to 0.5 | – | > 0.5 | > 0.5 | > 0.5 | –
NC(=O)Nc1cc(F)ccc1SC1=NN2CNC(=O)C(c3c(Cl)cccc3Cl)=C2C=C1 | > 0.5 | > 0.5 | – | – | – | – | –
CN(C)C=Nc1ccc(-c2c(=O)ncn3nc(Sc4cc(F)ccc4Cl)ccc23)c(Cl)c1 | > 0.5 | 0.1 to 0.5 | 0.1 to 1 | – | – | – | –
COC(=O)c1ccccc1Sc1ccc2c(-c3c(Cl)cccc3Cl)c(=O)ncn2n1 | 0.1 to 0.5 | < 0.1 | – | – | > 0.5 | > 0.5 | –
Nc1cc(C(F)(F)F)ccc1SC1=NN2CNC(=O)C(c3c(Cl)cccc3Cl)=C2C=C1 | > 0.5 | 0.1 to 0.5 | – | – | – | – | –
COc1ccccc1-c1c(=O)ncn2nc(Sc3ccccc3)ccc12 | > 0.5 | > 0.5 | – | – | – | – | –
NC(=O)C(c1cccc(-c2ccccc2CN2CCCC2)n1)c1c(Cl)cccc1Cl (stereo unspecified) | > 0.5 | 0.1 to 0.5 | – | – | – | – | –
Cc1ccc(Sc2ccc3c(-c4c(Cl)cccc4Cl)c(=O)ncn3n2)cc1C | > 0.5 | > 0.5 | – | – | – | – | –
CC(C)c1ccccc1Sc1ccc2c(-c3c(Cl)cccc3Cl)c(=O)ncn2n1 | > 0.5 | > 0.5 | – | – | – | – | –
Cc1ccccc1-c1c(=O)ncn2nc(Sc3ccccc3)ccc12 | > 0.5 | > 0.5 | – | – | – | – | –
CNCc1ccccc1-c1cccc(C(C(N)=O)c2c(Cl)cccc2Cl)n1 (stereo unspecified) | > 0.5 | > 0.5 | – | > 0.5 | > 0.5 | > 0.5 | –
N=C(N)Nc1cc(F)c(F)cc1SC1=NN2CNC(=O)C(c3c(Cl)cccc3Cl)=C2C=C1 | > 0.5 | > 0.5 | – | – | – | – | –
NC(=O)C(c1ccc(C(O)c2ccccc2)cn1)c1c(Cl)cccc1Cl (stereo unspecified) | – | 0.1 to 0.5 | – | – | – | – | –
O=c1ncn2nc(Sc3ccccc3)ccc2c1-c1c(F)cccc1C(F)(F)F | > 0.5 | > 0.5 | – | – | – | – | –
NC(=O)C(c1cccc(-c2cccs2)n1)c1c(Cl)cccc1Cl (stereo unspecified) | > 0.5 | > 0.5 | – | – | – | – | –
COC(=O)CCc1ccc(SC2=NN3CNC(=O)C(c4c(Cl)cccc4Cl)=C3C=C2C)cc1 | > 0.5 | 0.1 to 0.5 | – | > 0.5 | > 0.5 | > 0.5 | –
COc1ccc(C2=C3C=CC(Sc4ccc(F)cc4)=NN3CNC2=O)c(Cl)c1 | > 0.5 | – | – | > 0.5 | > 0.5 | > 0.5 | –
NC(=O)C(c1ccc(C(=O)c2ccccc2)cn1)c1c(Cl)cccc1Cl (stereo unspecified) | – | > 0.5 | – | – | – | – | –
Cc1cccc(Sc2ccc3c(-c4c(Cl)cccc4Cl)c(=O)ncn3n2)c1 | 0.1 to 0.5 | 0.1 to 0.5 | – | – | – | – | –
O=c1ncn2nc(Sc3ccccc3)ccc2c1-c1ccccc1Cl | > 0.5 | > 0.5 | – | – | – | – | –
O=c1ncn2nc(Sc3ccccn3)ccc2c1-c1c(Cl)cccc1Cl | > 0.5 | – | – | – | – | > 0.5 | –
Nc1ccc(Cl)c(-c2c(=O)ncn3nc(Sc4ccc(F)cc4)ccc23)c1Cl | > 0.5 | 0.1 to 0.5 | 0.1 to 1 | > 0.5 | > 0.5 | > 0.5 | –

Compound | IC50 (MAPK14 (human) [1]) [µM] | IC50 (MAPK14 (human) [2]) [µM] | IC50 (MAPK14 (human) [3]) [µM] | IC50 (MAPK14 (human) [4]) [µM] | IC50 (MAPK14 (human) [5]) [µM] | IC50 (MAPK14 (human) [6]) [µM] | Ki (MAPK14 (human) [3]) [µM]
COc1ccc(-c2c(=O)ncn3nc(Sc4ccc(F)cc4)ccc23)cc1OC | > 0.5 | > 0.5 | 0.1 to 1 | – | – | – | –
Cc1ccccc1-c1cccc(C(C(N)=O)c2c(Cl)cccc2Cl)n1 (stereo unspecified) | > 0.5 | – | – | > 0.5 | > 0.5 | > 0.5 | –
COc1ccc(-c2cccc(C(C(N)=O)c3c(Cl)cccc3Cl)n2)cc1 (stereo unspecified) | – | > 0.5 | – | – | – | – | –
NC(=O)C(c1cccc(-c2ccccc2CNCCO)n1)c1c(Cl)cccc1Cl (stereo unspecified) | > 0.5 | > 0.5 | – | – | – | – | –
COc1ccc(-c2c(=O)ncn3nc(Sc4ccc(F)cc4)ccc23)c(Cl)c1OC | > 0.5 | > 0.5 | – | > 0.5 | > 0.5 | > 0.5 | –
CN(C)C(=O)c1ccccc1Sc1ccc2c(-c3c(Cl)cccc3Cl)c(=O)ncn2n1 | > 0.5 | > 0.5 | – | – | – | – | –
NC(=O)C(c1cccc(-c2ccccc2C=NO)n1)c1c(Cl)cccc1Cl (stereo unspecified) | > 0.5 | – | – | > 0.5 | > 0.5 | > 0.5 | –
Cc1ccc(Sc2ccc3c(-c4c(Cl)cccc4Cl)c(=O)ncn3n2)cc1 | > 0.5 | 0.1 to 0.5 | – | – | – | – | –
Cc1cc(F)ccc1SC1=NN2CNC(=O)C(c3c(F)cccc3F)=C2C=C1 | > 0.5 | 0.1 to 0.5 | < 0.1 | – | – | – | –
CCc1cc(Cl)c(C2=C3C=CC(Sc4ccc(F)cc4)=NN3CNC2=O)cc1O | > 0.5 | 0.1 to 0.5 | < 0.1 | > 0.5 | > 0.5 | > 0.5 | –
Nc1cc(F)ccc1SC1=NN2CNC(=O)C(c3c(Cl)cccc3Cl)=C2C=C1 | – | – | – | < 0.25 | 0.25 to 0.5 | 0.25 to 0.5 | –
Cc1cc(F)ccc1-c1cccc(N(C(N)=O)c2cc3c(cc2Cl)OCO3)n1 | – | – | – | > 0.5 | > 0.5 | > 0.5 | –
NC(=O)C(c1cccc(-c2ccc(Cl)cc2Cl)n1)c1c(Cl)cccc1Cl (stereo unspecified) | – | – | – | > 0.5 | > 0.5 | > 0.5 | –
Cc1cc(F)ccc1-c1cccc(C(C(N)=O)c2c(Cl)cccc2Cl)n1 (stereo unspecified) | – | – | – | > 0.5 | > 0.5 | > 0.5 | –
Cc1cccc(-c2cccc(C(C(N)=O)c3c(Cl)cccc3Cl)n2)c1 (stereo unspecified) | > 0.5 | – | – | > 0.5 | > 0.5 | > 0.5 | –
O=c1ncn2nc(Sc3ccccc3)ccc2c1-c1ccccc1 | – | – | – | – | – | – | > 20
COc1cc(Cl)c(C2=C3C=CC(Sc4ccc(F)cc4)=NN3CNC2=O)cc1OC | > 0.5 | – | – | – | – | – | –
COc1ccc(C2=C3C=CC(Sc4ccc(F)cc4)=NN3CNC2=O)c(Cl)c1OC | – | – | – | > 0.5 | > 0.5 | > 0.5 | –
O=c1ncn2nc(Sc3ccccc3)ccc2c1-c1c(F)cccc1F | > 0.5 | > 0.5 | – | – | – | – | –
Cc1c(Sc2ccccc2)nn2cnc(=O)c(-c3c(Cl)cccc3Cl)c2c1C | > 0.5 | > 0.5 | – | – | – | – | –
NC(=O)C(c1cccc(-c2ccccc2)n1)c1c(Cl)cccc1Cl (stereo unspecified) | – | – | – | > 0.5 | > 0.5 | > 0.5 | –
O=C1NCN2N=C(Sc3ccc(F)cc3F)C=CC2=C1c1cc2c(cc1Cl)OCO2 | < 0.1 | < 0.1 | < 0.1 | < 0.25 | < 0.25 | < 0.25 | –
NC(=O)C(c1cccc(-c2ccccc2CN2CCNCC2)n1)c1c(Cl)cccc1Cl (stereo unspecified) | > 0.5 | > 0.5 | – | > 0.5 | > 0.5 | > 0.5 | –
